The source of these data is patent publication US8569511B2, “Substituted 3-(1H-benzo[d]imidazol-2-yl)-1H-indazole analogs as inhibitors of the PDK1 kinase” (University of Utah Research Foundation, priority 2011, dated 2013).

The test system of experiment [1] is HEC-1A cells. As to the kind of experiment: Cell viability assay (ATP-lite). It is filed as cell-based. The following applies: for IC50: Homo sapiens. Here is the method:
(§1) AN3-CA (PTEN-deficient), RL95-2 (PTEN-deficient), and HEC-1A (PTEN-wild type) cells were plated in 45 μl of RPMI-1640 media supplemented with 10% FBS and 1% Pen/Strep at a density of 1000 cells per well in white 384-well plates. Cells were allowed to attach by incubation overnight at 37° C. and 5% CO2. Test compounds were diluted to 10× concentrations in RPMI-1640 media (containing 3% DMSO) and 5 μl 1 of these dilutions were added in triplicate to the appropriate wells containing the cells. The plates containing the drug-treated cells and appropriate controls were incubated for 96 hours. At the end of the incubation, 40 μl of ATP-lite (PerkinElmer, Inc., Waltham, Massachussetts) reagent were added to each well and luminescence signal was measured on an EnVision microplate reader.
(§2) Alternatively, AN3-CA, RL95-2, HEC-1A endometrial cancer cell lines were plated at a density of 2000 cells per well in a 96 well culture plate in 45 μl of cell culture media and incubated overnight. […] Vehicle treated controls were also included and each condition was applied in quadruplicate. Following 96 hours of incubation, 35 μL of ATP-lite (PerkinElmer) reagent was added each well and allowed to react for 10 minutes. Plate was read on a Envision 2104 MultiLabel reader (PerkinElmer).
(§3) IC50 values are determined using GraphPad Prism 5 software. The data were entered as an X-Y plot into the software as percent inhibition for each concentration of the drug. The concentration values of the drug were log transformed and the nonlinear regression was carried out using the “sigmoidal dose-response (variable slope)” option within the GraphPad software to model the data and calculate IC50 values.

Experiment [2] relates to RL95-2 cells. As to the kind of experiment: Cell viability assay (ATP-lite). The experiment is classed as cell-based. The note with it: for IC50: Homo sapiens. Here is the method: as §1, §2, §3
Experiment [3] concerns HCT-116. As to the kind of experiment: Cell viability assay, cancer cell line panel. The experiment is classed as cell-based. The note with it: Homo sapiens, mutation KRAS, PIK3CA.
For experiment [4], the system named is AGS. As to the kind of experiment: Cell viability assay, cancer cell line panel. It is filed as cell-based. The note with it: Homo sapiens, mutation KRAS, PIK3CA.
Experiment [5] deals with BT549. As to the kind of experiment: Cell viability assay, cancer cell line panel. The experiment is classed as cell-based. The note with it: Homo sapiens, BT-549; mutation PTEN.
In experiment [6] the test system is HCT-15. As to the kind of experiment: Cell viability assay, cancer cell line panel. The experiment is classed as cell-based. The note with it: Homo sapiens, mutation KRAS, PIK3CA.
The subject of experiment [7] is H1975. As to the kind of experiment: Cell viability assay, cancer cell line panel. It is filed as cell-based. The note with it: Homo sapiens, NCI-H1975; mutation PIK3CA.
Experiment [8] has as its system BT-20. As to the kind of experiment: Cell viability assay, cancer cell line panel. The experiment is classed as cell-based. The following applies: Homo sapiens, mutation PIK3CA.
Experiment [9] concerns 82 cell lines representing more than 20 tumor types. Kind of experiment: Screen of a further 82 cell lines (8-point serial dilution). It is filed as cell-based. From the text:
(§4) In order to determine if there were additional cell lines that were profoundly sensitive to this compound, a further 82 cell lines were screened which represented more than 20 different tumor types of origin. […] Without wishing to bound by a particular theory, these three additional cell lines are all acute myeloid leukemic lines that have different activating mutations in oncogenes that have been associated with elevated PI3K activity. MV4-11 has the FLT3 internal tandem duplication (ITD) and Kasumi-1 has amplified and mutated c-kit as well as the AML-ETO gene fusion. […] All three lines have wild-type PTEN but have shown to express very low levels of PTEN protein, which makes them functionally deficient for PTEN.

For experiment [10], the system named is KG-1 cell line. Kind of experiment: Screen of further cell lines. The experiment is classed as cell-based. The note with it: acute myeloid leukemic line.
Text: as §4

The subject of experiment [11] is Kasumi cell line. Kind of experiment: Screen of further cell lines. The experiment is classed as cell-based. The note with it: acute myeloid leukemic line.
Text: as §4

Experiment [12] has as its system MV4-11 cell line. As to the kind of experiment: Screen of further cell lines. The note with it: acute myeloid leukemic line. It is filed as cell-based.
Text: as §4

Experiment [13] has as its system AKT phosphorylation (Thr308) in AN3-CA cells. As to the kind of experiment: AKT (T308) Phosphorylation Assay (Meso Scale Discovery). The experiment is classed as cell-based. The note with it: Homo sapiens, 24 hours, FIG. 7A, read-out: IC50 knock down of phospho-AKT (Thr308) levels. Here is the method: AN3-CA cells were plated in 900 μl of RPMI-1640 media supplemented with 10% FBS and 1% Pen/Strep at a density of 8×10^5 cells per well in 6-well plates. Cells were allowed to attach by incubation overnight at 37° C. and 5% CO2. Test compounds were diluted to 10× concentrations in RPMI-1640 media (containing 3% DMSO) and 100 μl of these dilutions were added to the appropriate wells containing the cells. The plates containing the drug-treated cells and appropriate controls were incubated for 24 hours. At the end of incubation, phosphorylated AKT was evaluated in treated and control samples using a Meso Scale Discovery (Gaithersburg, Md.) assay kit (human Phospho-Akt (Thr308) kit) and by following the manufacturer's instructions included with the kit. Total AKT (phosphorylated and unphosphorylated) was also evaluated in the samples using a separate kit (Meso Scale Discovery). The percentage of AKT phosphorylated at the Thr308 position (also indicated as T308 herein) was determined by normalizing the phospho-AKT signal to the total AKT signal and then showing the percent phosphorylation in the treated samples relative to the controls.
Briefly, AN3-CA cells were treated with the compound for 24 hours and lysates from these treatments were analyzed for phospho-AKT (Thr308) using the Meso Scale Discovery technology platform as described above.

The target in experiment [14] is PDGFRA (Homo sapiens (Human), UniProt P16234). As to the kind of experiment: Kinase profiling, fluorometric assays by Life Technologies. The experiment is classed as biochemical. The note with it: profiling at 500 nM, FIG. 8. Here is the method:
(§5) The panel comprised 78 distinct protein kinases, and data are shown for a subset of 20 kineases (see FIG. 8). Kinase profiling was performed against a focus panel of kinases relevant to PDK1 signaling and other known oncogenic kinases. The activity profiling as performed at 500 nM and percent inhibition at that concentration was determined for each kinase shown.
(§6) The kinase specificity was measured using fluorometric assays performed by Life Technologies (Grand Island, N.Y.). Assay conditions vary for each kinase and are available from Life Technologies, Grand Island, NY. For example, the assay conditions for PDK1 are as follows. The 2×PDK1/Ser/Thr-07 mixture is prepared in 50 mM Tris pH 8.5, 0.01% BRIJ-35, 10 mM MgCl2, 1 mM EGTA, 0.02% NaN3. The final 10 μL Kinase Reaction consists of 7.36-38.7 ng PDK1 and 2 μM Ser/Thr 07. After the 1 hour kinase reaction incubation, 5 μL of a 1:32768 dilution of Development Reagent A is added.

The target in experiment [15] is VEGFR1 (Homo sapiens (Human), UniProt P17948). The experiment is described as above. The experiment is classed as biochemical. The note with it: profiling at 500 nM, FIG. 8. Here is the method:
as §5, §6

Experiment [16] concerns the target VEGFR2 (Homo sapiens (Human), UniProt P35968). Described as above. The note with it: profiling at 500 nM, FIG. 8. The experiment is classed as biochemical. Here is the method: as §5, §6
For experiment [17], the target named is p70S6K (Homo sapiens (Human), UniProt P23443). Described as above. It is filed as biochemical. The following applies: profiling at 500 nM, FIG. 8. As to the method:
as §5, §6

Where two headings read alike, the source gives them in different places.

VEGFR2, sequence (P35968 20-1356): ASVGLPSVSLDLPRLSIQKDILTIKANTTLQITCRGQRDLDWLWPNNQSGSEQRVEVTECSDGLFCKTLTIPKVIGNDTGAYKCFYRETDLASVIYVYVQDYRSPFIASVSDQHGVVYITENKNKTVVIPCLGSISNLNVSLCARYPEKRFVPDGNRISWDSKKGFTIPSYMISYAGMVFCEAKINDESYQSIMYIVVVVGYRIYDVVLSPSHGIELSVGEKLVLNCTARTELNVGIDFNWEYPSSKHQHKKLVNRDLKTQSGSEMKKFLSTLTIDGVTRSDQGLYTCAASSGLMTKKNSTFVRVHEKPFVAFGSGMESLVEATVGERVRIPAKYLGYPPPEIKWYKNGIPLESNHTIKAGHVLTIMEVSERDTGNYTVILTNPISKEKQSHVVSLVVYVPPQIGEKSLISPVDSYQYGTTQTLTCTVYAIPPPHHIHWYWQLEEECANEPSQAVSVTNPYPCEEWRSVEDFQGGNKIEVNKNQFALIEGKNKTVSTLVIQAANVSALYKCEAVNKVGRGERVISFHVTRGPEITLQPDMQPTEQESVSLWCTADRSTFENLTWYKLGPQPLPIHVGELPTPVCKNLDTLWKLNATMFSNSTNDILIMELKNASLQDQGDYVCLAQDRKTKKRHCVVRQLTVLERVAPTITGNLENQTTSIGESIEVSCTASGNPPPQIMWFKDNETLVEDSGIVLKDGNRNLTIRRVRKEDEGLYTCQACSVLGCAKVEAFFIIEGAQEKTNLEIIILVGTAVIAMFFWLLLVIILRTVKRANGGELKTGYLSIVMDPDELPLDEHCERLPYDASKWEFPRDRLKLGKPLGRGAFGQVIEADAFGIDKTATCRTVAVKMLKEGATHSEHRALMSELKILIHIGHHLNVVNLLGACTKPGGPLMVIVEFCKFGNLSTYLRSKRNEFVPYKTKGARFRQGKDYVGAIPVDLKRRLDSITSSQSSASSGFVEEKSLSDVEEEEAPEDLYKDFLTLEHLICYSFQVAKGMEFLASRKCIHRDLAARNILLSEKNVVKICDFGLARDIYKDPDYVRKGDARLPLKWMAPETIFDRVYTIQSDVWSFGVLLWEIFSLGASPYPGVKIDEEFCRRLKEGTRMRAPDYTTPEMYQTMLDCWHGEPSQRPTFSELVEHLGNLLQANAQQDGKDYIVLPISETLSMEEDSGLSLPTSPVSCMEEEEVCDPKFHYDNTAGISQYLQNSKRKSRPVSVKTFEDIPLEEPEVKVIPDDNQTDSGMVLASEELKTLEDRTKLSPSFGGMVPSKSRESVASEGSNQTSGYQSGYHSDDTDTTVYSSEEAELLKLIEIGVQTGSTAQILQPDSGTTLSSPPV
VEGFR1, sequence (P17948 27-1338): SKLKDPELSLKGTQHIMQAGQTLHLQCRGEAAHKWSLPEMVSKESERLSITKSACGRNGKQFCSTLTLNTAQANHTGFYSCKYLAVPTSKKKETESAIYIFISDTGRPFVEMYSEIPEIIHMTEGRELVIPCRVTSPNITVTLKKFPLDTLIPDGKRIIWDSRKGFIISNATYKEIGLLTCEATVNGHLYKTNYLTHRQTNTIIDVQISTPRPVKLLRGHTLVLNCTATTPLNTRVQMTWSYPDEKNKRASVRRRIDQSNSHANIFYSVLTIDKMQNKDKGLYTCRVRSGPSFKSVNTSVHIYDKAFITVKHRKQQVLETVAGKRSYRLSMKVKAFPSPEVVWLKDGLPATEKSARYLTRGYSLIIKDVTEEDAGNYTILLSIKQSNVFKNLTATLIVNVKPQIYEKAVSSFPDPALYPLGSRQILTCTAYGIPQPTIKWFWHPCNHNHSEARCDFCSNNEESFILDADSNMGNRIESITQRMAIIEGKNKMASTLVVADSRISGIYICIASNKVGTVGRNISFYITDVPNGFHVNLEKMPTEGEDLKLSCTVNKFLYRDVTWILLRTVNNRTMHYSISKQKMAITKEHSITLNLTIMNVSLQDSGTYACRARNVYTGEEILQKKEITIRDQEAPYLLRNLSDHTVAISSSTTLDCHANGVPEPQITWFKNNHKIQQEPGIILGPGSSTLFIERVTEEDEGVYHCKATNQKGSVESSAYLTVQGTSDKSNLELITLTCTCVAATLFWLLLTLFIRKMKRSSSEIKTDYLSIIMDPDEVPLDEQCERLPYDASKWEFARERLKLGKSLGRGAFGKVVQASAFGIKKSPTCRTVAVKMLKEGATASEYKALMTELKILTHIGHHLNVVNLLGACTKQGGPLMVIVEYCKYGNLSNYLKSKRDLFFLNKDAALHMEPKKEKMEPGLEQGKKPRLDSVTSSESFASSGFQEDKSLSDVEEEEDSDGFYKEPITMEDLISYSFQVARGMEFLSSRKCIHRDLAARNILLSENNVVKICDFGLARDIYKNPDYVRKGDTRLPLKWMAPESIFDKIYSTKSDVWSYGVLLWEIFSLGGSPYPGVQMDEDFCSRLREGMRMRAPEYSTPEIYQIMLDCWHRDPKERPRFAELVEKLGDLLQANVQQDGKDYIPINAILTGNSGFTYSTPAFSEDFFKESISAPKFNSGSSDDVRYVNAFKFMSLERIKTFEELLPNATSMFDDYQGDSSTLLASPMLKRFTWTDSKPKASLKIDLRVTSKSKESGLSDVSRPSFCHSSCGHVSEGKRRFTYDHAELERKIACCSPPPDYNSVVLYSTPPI
PDGFRA, sequence (P16234 24-1089): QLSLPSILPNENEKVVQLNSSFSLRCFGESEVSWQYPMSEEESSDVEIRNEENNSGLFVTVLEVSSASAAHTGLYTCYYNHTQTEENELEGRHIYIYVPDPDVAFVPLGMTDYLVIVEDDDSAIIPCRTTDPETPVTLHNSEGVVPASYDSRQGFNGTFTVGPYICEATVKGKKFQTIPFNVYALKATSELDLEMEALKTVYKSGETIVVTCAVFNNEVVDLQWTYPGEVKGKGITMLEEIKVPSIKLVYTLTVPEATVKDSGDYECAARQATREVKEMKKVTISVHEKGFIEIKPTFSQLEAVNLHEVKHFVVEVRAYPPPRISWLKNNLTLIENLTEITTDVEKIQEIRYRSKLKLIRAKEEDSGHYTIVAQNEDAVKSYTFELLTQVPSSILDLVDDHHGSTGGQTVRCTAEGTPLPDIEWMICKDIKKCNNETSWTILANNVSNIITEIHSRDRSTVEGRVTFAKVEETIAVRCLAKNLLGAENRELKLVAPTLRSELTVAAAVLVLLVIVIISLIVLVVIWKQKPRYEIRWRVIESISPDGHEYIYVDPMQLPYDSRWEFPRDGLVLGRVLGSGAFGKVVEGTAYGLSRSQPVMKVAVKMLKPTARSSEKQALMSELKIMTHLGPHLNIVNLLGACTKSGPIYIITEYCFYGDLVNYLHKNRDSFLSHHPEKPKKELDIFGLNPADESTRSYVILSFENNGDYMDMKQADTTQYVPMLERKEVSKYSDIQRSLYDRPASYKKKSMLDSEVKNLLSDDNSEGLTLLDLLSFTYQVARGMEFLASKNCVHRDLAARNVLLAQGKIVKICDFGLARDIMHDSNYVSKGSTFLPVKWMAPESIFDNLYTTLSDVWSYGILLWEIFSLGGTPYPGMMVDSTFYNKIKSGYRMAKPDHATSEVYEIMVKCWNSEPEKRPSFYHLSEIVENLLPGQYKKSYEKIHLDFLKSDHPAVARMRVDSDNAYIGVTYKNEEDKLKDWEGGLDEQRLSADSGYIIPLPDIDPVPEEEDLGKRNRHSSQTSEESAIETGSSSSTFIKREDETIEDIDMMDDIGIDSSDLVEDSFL
p70S6K, sequence (P23443 whole entry): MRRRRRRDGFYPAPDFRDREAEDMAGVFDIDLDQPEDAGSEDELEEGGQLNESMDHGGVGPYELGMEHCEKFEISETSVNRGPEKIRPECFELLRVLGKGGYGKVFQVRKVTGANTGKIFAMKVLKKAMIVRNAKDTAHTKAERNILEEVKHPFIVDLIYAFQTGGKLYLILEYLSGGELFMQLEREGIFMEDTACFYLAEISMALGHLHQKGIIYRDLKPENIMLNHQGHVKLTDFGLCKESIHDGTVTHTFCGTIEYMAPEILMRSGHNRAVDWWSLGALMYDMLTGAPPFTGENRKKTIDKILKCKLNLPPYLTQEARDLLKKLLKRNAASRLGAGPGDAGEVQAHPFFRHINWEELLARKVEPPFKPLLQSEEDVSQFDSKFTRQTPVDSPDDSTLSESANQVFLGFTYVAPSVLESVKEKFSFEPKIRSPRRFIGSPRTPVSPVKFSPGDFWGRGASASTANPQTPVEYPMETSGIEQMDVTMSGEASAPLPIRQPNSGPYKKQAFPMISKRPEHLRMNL

Turning to `O=C(Nc1ccc2[nH]nc(-c3nc4ccc(N5CCOCC5)cc4[nH]3)c2c1)C1CC1(F)F` (stereo not drawn) [Compound 1, 2,2-difluoro-N-(3-(5-morpholino-1H-benzo[d]imidazol-2-yl)-1H-indazol-5-yl)cyclopropanecarboxamide], in experiment [1] (FIG. 6), the “Potency in cell viability assay, HEC-1A (in words)” value was “relatively inactive”. In addition, the IC50 in experiment [1] (HEC-1-A, Table VI panel, mutation KRAS, PIK3CA, read-out: IC50 cell viability, Hec-1A) turned out to be 3760 nM; in experiment [1] (HEC-1A (PTEN-wild type), read-out: Cell Viability IC50 HEC-1A), 3780 nM; in [2] (RL95-2, Table VI panel, mutation PTEN, HRAS, read-out: IC50 cell viability, RL95-2) it was 654 nM; in experiment [2] (RL95-2, read-out: IC50 cell viability, RL-95-A), 479 nM; in experiment [2] (RL95-2 (PTEN mutation), read-out: Cell Viability IC50 RL95-2), 479 nM; in experiment [3], 2520 nM. In addition, the IC50 is 2770 nM in experiment [4]; 3160 nM in experiment [5]; 6990 nM in experiment [6]; 9860 nM in experiment [7]; 13100 nM in experiment [8]; more than 1000 nM in experiment [9] (68 of the cell lines, 10 μM down to 3 nM, read-out: IC50 in 68 of the 82 cell lines). Further, the values for the IC50 in experiment [9] (read-out: IC50 in 5 cell lines) and in experiment [13] were less than 100 nM and 51 nM, respectively. Besides, in experiment [2] (FIG. 6), the “Potency in cell viability assay, RL-95-2 (in words)” value is “moderately potent”. In addition, in [9] (9 cell lines), the “IC50 in 9 of the 82 cell lines” value was “hundreds of nano-molar range”. In experiment [10], the “Sensitivity of KG-1 cell line” value is listed as “very sensitive”. For the same molecule, the “Sensitivity of Kasumi cell line” value in [11] is reported as “very sensitive”. Moreover, in experiment [12], the “Sensitivity of MV4-11 cell line” value is given as “very sensitive”. Moreover, in [14], the “Kinase profiling activity against PDGFRA (in words)” value was “relatively potent activity”. Moreover, the “Kinase profiling activity against VEGFR1 (in words)” value in experiment [15] is “relatively potent activity”. In addition, in experiment [16], the “Kinase profiling activity against VEGFR2 (in words)” value was “relatively potent activity”. For the same molecule, in experiment [17], the “Kinase profiling activity against p70S6K (in words)” value was “potent activity”.

As a reminder, the IC50 is the point on the concentration scale where inhibition reaches its midpoint.
